Measurements: US11420970B1 (NOVARTIS AG, priority 2019, dated 2022)
pIC50: −log10 of the molar value. Where two headings read alike, the source gives them in different places.

Experiments:
[1] = test system: cellular H3K36me2 level in multiple myeloma cell line KMS11 (t(4;14)+); assay: H3K36me2 cellular ELISA assay in KMS11-Par line; assay type: cell-based; conditions: Homo sapiens, KMS-11, ELISA, read-out: H3K36me2 ELISA in KMS11-Par
Procedure: H3K36Me2 Cellular ELISA Assay in KMS11-Par Line
An ELISA (enzyme-linked immunosorbent assay) based assay was used to test the ability of candidate compound to reduce cellular H3K36me2 level in multiple myeloma cell line KMS11 (t(4;14)+). KMS11 (Horizon Discovery Ltd.) cells are maintained in RPM11640 media with 12.5% FBS and 50 U/ml Penicillin-Streptomycin. For assay compound treatment, single cell suspension was prepared in Opti-MEM supplemented with B-27 and N2 supplement (Invitrogen 11058-021, 17504-044, 17502-048) for ELISA and in maintenance media for cellTiter Glo (CTG) viability assay. One day prior to cell treatment, 1,250 KMS11 cells were seeded into 384-well Greiner CellStar TC plate (Greiner #781086) at the final volume of 30 μL/well.
Cells were treated with tested compounds at the desired concentration for 72 hours. Crude histone lysate was extracted by 0.4M HCl following neutralization by 0.5M Sodium phosphate, dibasic (Na2HPO4), pH ˜12.5. Equal amount of histone lysate was loaded to Corning 384-well high biding plate (Corning #3577, black) for H3K36m2 and to Thermo 384-well high binding Nunc plate (Thermo #460372, white) for total H3.
Histone bound plates were washed and blocked with 5% BSA. […] The abundance of H3K36me2 and total H3 was measured by Chemiluminesce on a plate reader. Cell viability was monitored on a parallel seeded plate with CellTiter-Glo reagent (Promega #G7573).

[2] = target: NSD2 [1-1365] (Homo sapiens (Human), UniProt O96028); assay: LC-MS/MS-based NSD2 enzymatic assay (SAH production); assay type: biochemical; conditions: read-out: NSD2 IC50
NSD2 [1-1365], sequence (O96028 whole entry): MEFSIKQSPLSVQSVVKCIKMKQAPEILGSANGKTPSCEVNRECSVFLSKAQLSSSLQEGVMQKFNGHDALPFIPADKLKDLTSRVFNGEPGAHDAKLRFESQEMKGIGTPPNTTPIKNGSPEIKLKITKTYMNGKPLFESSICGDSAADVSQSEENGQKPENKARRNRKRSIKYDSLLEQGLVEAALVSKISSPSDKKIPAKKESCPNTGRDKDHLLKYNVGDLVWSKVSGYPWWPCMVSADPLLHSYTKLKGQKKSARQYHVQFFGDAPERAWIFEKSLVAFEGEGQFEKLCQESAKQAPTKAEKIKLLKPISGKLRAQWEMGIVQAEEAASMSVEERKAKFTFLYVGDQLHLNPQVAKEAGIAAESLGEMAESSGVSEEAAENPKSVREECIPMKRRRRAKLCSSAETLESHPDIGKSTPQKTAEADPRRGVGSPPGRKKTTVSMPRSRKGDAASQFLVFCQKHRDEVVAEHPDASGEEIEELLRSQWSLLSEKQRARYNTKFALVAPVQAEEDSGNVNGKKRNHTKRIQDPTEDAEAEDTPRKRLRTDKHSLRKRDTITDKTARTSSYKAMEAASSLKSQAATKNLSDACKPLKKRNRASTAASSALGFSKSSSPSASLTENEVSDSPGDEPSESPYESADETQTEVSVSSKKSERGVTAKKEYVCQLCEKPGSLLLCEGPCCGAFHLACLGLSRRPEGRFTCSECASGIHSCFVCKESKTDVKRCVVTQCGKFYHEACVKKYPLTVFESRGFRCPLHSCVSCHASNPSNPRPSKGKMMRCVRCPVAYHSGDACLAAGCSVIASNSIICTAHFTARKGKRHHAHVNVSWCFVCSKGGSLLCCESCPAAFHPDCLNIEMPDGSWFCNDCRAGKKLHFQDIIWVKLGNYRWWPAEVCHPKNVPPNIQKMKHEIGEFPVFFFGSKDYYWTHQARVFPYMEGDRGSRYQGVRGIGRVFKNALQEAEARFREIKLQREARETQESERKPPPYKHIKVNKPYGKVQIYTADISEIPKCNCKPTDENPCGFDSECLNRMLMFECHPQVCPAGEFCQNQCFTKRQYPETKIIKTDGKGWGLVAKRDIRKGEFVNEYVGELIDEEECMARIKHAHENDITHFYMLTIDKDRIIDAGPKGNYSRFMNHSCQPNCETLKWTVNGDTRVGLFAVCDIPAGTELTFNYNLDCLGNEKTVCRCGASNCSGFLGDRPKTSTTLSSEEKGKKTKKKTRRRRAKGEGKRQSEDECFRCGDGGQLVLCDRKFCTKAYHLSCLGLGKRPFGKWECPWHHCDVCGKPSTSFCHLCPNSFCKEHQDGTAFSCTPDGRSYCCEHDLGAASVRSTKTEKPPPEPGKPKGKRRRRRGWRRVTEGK
Summary of the method: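 SAH formed was measured by LC-MS/MS using d4-SAH as internal standard and an SAH calibration curve. Compounds were preincubated 20 min with NSD2 [1-1365] and SAM; mouse-liver nucleosome then started a 90 min room-temperature reaction (8 nM enzyme, 1 μM SAM, 400 nM nucleosome final, pH 8.0), stopped with TFA.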

[3] = KMS11-Par line (t(4;14)+), 72 hours treatment
[4] = NSD2 biochemical activity, class symbols

`Nc1nccc2c1ncn2Cc1cc(-c2ccc(F)c(F)c2)ncc1N1CCC[C@](N)(Cc2ncco2)C1` [Example 63, (S)-1-((5-(3-amino-3-(oxazol-2-ylmethyl)piperidin-1-yl)-2-(3,4-difluorophenyl)pyridin-4-yl)methyl)-1H-imidazo[4,5-c]pyridin-4-amine] was tested, and the pIC50 [1, 3] was 5.10 and the pIC50 [2, 4] was 6.00 to 8.00.
`Nc1ncnc2c1ncn2Cc1cc(-c2ccc(F)c(F)c2)ncc1N1CCCC(N)(c2cnccn2)C1` (stereo not drawn) [Example 259, 9-((5-(3-amino-3-(pyrazin-2-yl)piperidin-1-yl)-2-(3,4-difluorophenyl)pyridin-4-yl)methyl)-9H-purin-6-amine] gave a pIC50 ([1]; KMS11-Par line, 72 hours) of 5.45 and a pIC50 [2] of 6.00 to 8.00.
For `Nc1ncnc2c1ncn2Cc1cc(-c2ccc(F)cc2)ncc1N1CCCC(N)(c2cccc(Cl)n2)C1` (stereo not drawn) [Example 205, 9-((5-(3-amino-3-(6-chloropyridin-2-yl)piperidin-1-yl)-2-(4-fluorophenyl)pyridin-4-yl)methyl)-9H-purin-6-amine], the pIC50 ([1]; KMS11-Par line, 72 hours) was 6.20 and the pIC50 [2] was 8.00 to 9.00.
Work on `Nc1ncnc2c1ncn2Cc1cc(-c2ccc(F)c(F)c2)ncc1N1CCCC(N)(Cc2cccc(F)n2)C1` (stereo not drawn) [Example 69, 9-((5-(3-amino-3-((6-fluoropyridin-2-yl)methyl)piperidin-1-yl)-2-(3,4-difluorophenyl)pyridin-4-yl)methyl)-9H-purin-6-amine] yielded a pIC50 [1, 3] of 5.94 and a pIC50 [2, 4] of 6.00 to 8.00.
In the case of `Nc1ncnc2c1ncn2Cc1cc(-c2ccc(F)c(F)c2)ncc1N1CCCC(N)(C=C(F)F)C1` (stereo not drawn) [Example 294, 9-((5-(3-amino-3-(2,2-difluorovinyl)piperidin-1-yl)-2-(3,4-difluorophenyl)pyridin-4-yl)methyl)-9H-purin-6-amine], the pIC50 ([1]; KMS11-Par line, 72 hours) was 5.03 and the pIC50 [2] was 6.00 to 8.00.
In the case of `Cn1ccc(C[C@@]2(N)CCCN(c3cnc(-c4ccc(F)cc4)cc3Cn3cnc4c(N)nccc43)C2)n1` [Example 49, (S)-1-((5-(3-amino-3-((1-methyl-1H-pyrazol-3-yl)methyl)piperidin-1-yl)-2-(4-fluorophenyl)pyridin-4-yl)methyl)-1H-imidazo[4,5-c]pyridin-4-amine], the pIC50 [1, 3] was 4.90 and the pIC50 [2, 4] was 8.00 to 9.00.
Work on `Nc1ncnc2c1ncn2Cc1cc(-c2ccc(F)cc2)ncc1N1CCC[C@](N)(c2cccc(C(F)F)n2)C1` [Example 203, (R)-9-((5-(3-amino-3-(6-(difluoromethyl)pyridin-2-yl)piperidin-1-yl)-2-(4-fluorophenyl)pyridin-4-yl)methyl)-9H-purin-6-amine] yielded a pIC50 ([1]; KMS11-Par line, 72 hours) of 6.41 and a pIC50 [2] of 8.00 to 9.00.
With `Cn1cc(C2(N)CCCN(c3cnc(-c4ccc(F)c(F)c4)cc3Cn3cnc4c(N)nccc43)C2)cn1` (stereo not drawn) [Example 270, 1-((5-(3-amino-3-(1-methyl-1H-pyrazol-4-yl)piperidin-1-yl)-2-(3,4-difluorophenyl)pyridin-4-yl)methyl)-1H-imidazo[4,5-c]pyridin-4-amine] the pIC50 ([1]; KMS11-Par line, 72 hours) was 4.82 and the pIC50 [2] was 6.00 to 8.00.
`Nc1ncnc2c1ncn2Cc1cc(-c2ccc(F)c(F)c2)ncc1N1CCCC(N)(c2ccn(C3CC3)n2)C1` (stereo not drawn) [Example 278, 9-((5-(3-amino-3-(1-cyclopropyl-1H-pyrazol-3-yl)piperidin-1-yl)-2-(3,4-difluorophenyl)pyridin-4-yl)methyl)-9H-purin-6-amine] gave a pIC50 ([1]; KMS11-Par line, 72 hours) of 6.32 and a pIC50 [2] of 8.00 to 9.00.
For `Nc1nccc2c1ncn2Cc1cc(-c2ccc(F)cc2)ncc1N1CCCC(N)(c2ccccn2)C1` (stereo not drawn) [Example 266, 1-((5-(3-amino-3-(pyridin-2-yl)piperidin-1-yl)-2-(4-fluorophenyl)pyridin-4-yl)methyl)-1H-imidazo[4,5-c]pyridin-4-amine], the pIC50 ([1]; KMS11-Par line, 72 hours) was 6.36 and the pIC50 [2] was 8.00 to 9.00.
For `Nc1ncnc2c1ncn2Cc1cc(-c2ccc(F)c(F)c2)ncc1N1CCC[C@](N)(c2ccncc2)C1` [Example 245, (S)-9-((5-(3-amino-3-(pyridin-4-yl)piperidin-1-yl)-2-(3,4-difluorophenyl)pyridin-4-yl)methyl)-9H-purin-6-amine], the pIC50 ([1]; KMS11-Par line, 72 hours) was 5.67 and the pIC50 [2] was 6.00 to 8.00.
For `Nc1nccc2c1ncn2Cc1cc(-c2ccc(F)c(F)c2)ncc1N1CCCC(N)(c2cccc(F)n2)C1` (stereo not drawn) [Example 262, 1-((5-(3-amino-3-(6-fluoropyridin-2-yl)piperidin-1-yl)-2-(3,4-difluorophenyl)pyridin-4-yl)methyl)-1H-imidazo[4,5-c]pyridin-4-amine], the pIC50 ([1]; KMS11-Par line, 72 hours) was 5.88 and the pIC50 [2] was 6.00 to 8.00.
`CCO[C@H](C)C1(N)CCCN(c2cnc(-c3ccc(F)c(F)c3)cc2Cn2cnc3c(N)ncnc32)C1` (stereo partly drawn) [Example 99, 9-((5-(3-amino-3-((R)-1-ethoxyethyl)piperidin-1-yl)-2-(3,4-difluorophenyl)pyridin-4-yl)methyl)-9H-purin-6-amine] was tested, and the pIC50 [1, 3] was 4.68 and the pIC50 [2, 4] was 6.00 to 8.00.
Work on `Nc1ncnc2c1ncn2Cc1cc(-c2ccc(F)c(F)c2)ncc1N1CCCC(N)(c2cccnc2)C1` (stereo not drawn) [Example 271, 9-((5-(3-amino-3-(pyridin-3-yl)piperidin-1-yl)-2-(3,4-difluorophenyl)pyridin-4-yl)methyl)-9H-purin-6-amine] yielded a pIC50 ([1]; KMS11-Par line, 72 hours) of 4.48 and a pIC50 [2] of less than 6.00.
`Nc1nccc2c1ncn2Cc1cc(-c2ccc(F)cc2)ncc1N1CCCC(N)(c2ccn(C3CC3)n2)C1` (stereo not drawn) [Example 280, 1-((5-(3-amino-3-(1-cyclopropyl-1H-pyrazol-3-yl)piperidin-1-yl)-2-(4-fluorophenyl)pyridin-4-yl)methyl)-1H-imidazo[4,5-c]pyridin-4-amine] was tested, and the pIC50 ([1]; KMS11-Par line, 72 hours) was 5.83 and the pIC50 [2] was 8.00 to 9.00.
With `Cn1cc([C@@]2(N)CCCN(c3cnc(-c4ccc(F)c(F)c4)cc3Cn3cnc4c(N)ncnc43)C2)cn1` [Example 269, (S)-9-((5-(3-amino-3-(1-methyl-1H-pyrazol-4-yl)piperidin-1-yl)-2-(3,4-difluorophenyl)pyridin-4-yl)methyl)-9H-purin-6-amine] the pIC50 ([1]; KMS11-Par line, 72 hours) was 5.25 and the pIC50 [2] was 8.00 to 9.00.
Compound `CCn1ccc(C2(N)CCCN(c3cnc(-c4ccc(F)cc4)cc3Cn3cnc4c(N)nccc43)C2)n1` (stereo not drawn) [Example 277, 1-((5-(3-amino-3-(1-ethyl-1H-pyrazo1-3-yl)piperidin-1-yl)-2-(4-fluorophenyl)pyridin-4-yl)methyl)-1H-imidazo[4,5-c]pyridin-4-amine] has a pIC50 ([1]; KMS11-Par line, 72 hours) of 5.66 and a pIC50 [2] of 6.00 to 8.00.
`Nc1nccc2c1ncn2Cc1cc(-c2ccc(F)c(F)c2)ncc1N1CCC[C@](N)(c2cccc(C(F)F)n2)C1` [Example 260, (R)-1-((5-(3-amino-3-(6-(difluoromethyl)pyridin-2-yl)piperidin-1-yl)-2-(3,4-difluorophenyl)pyridin-4-yl)methyl)-1H-imidazo[4,5-c]pyridin-4-amine] gave a pIC50 ([1]; KMS11-Par line, 72 hours) of 5.82 and a pIC50 [2] of 6.00 to 8.00.
`Nc1ncnc2c1ncn2Cc1cc(-c2ccc(F)c(F)c2)ncc1N1CCC[C@](N)(c2ncccc2F)C1` [Example 199, (R)-9-((5-(3-amino-3-(3-fluoropyridin-2-yl)piperidin-1-yl)-2-(3,4-difluorophenyl)pyridin-4-yl)methyl)-9H-purin-6-amine] gave a pIC50 ([1]; KMS11-Par line, 72 hours) of 6.07 and a pIC50 [2] of 8.00 to 9.00.
`Nc1nccc2c1ncn2Cc1cc(C2CC2)ncc1N1CCC[C@](N)(c2cccc(C(F)F)n2)C1` [Example 264, (R)-1-((5-(3-amino-3-(6-(difluoromethyl)pyridin-2-yl)piperidin-1-yl)-2-cyclopropylpyridin-4-yl)methyl)-1H-imidazo[4,5-c]pyridin-4-amine] showed a pIC50 ([1]; KMS11-Par line, 72 hours) of 5.02 and a pIC50 [2] of 6.00 to 8.00.
For `COc1ccc(-c2cc(Cn3cnc4c(N)nccc43)c(N3CCC[C@](N)(Cc4ccccn4)C3)cn2)cc1F` [Example 50, (S)-1-((5-(3-amino-3-(pyridin-2-ylmethyl)piperidin-1-yl)-2-(3-fluoro-4-methoxyphenyl)pyridin-4-yl)methyl)-1H-imidazo[4,5-c]pyridin-4-amine], the pIC50 [1, 3] was 6.05 and the pIC50 [2, 4] was 8.00 to 9.00.
In the case of `Nc1ncnc2c1ncn2Cc1cc(-c2ccc(F)c(F)c2)ncc1N1CCC[C@](N)(c2ccncc2F)C1` [Example 248, (S)-9-((5-(3-amino-3-(3-fluoropyridin-4-yl)piperidin-1-yl)-2-(3,4-difluorophenyl)pyridin-4-yl)methyl)-9H-purin-6-amine], the pIC50 ([1]; KMS11-Par line, 72 hours) was 5.54 and the pIC50 [2] was 6.00 to 8.00.
Compound `COCC1CC(N)CN(c2cnc(-c3ccc(F)c(F)c3)cc2Cn2cnc3c(N)ncnc32)C1` (stereo not drawn) [Example 308, 9-((5-(3-amino-5-(methoxymethyl)piperidin-1-yl)-2-(3,4-difluorophenyl)pyridin-4-yl)methyl)-9H-purin-6-amine] has a pIC50 ([1]; KMS11-Par line, 72 hours) of 4.56 and a pIC50 [2] of 6.00 to 8.00.
`CN(C)C(=O)CC[C@@]1(N)CCCN(c2cnc(-c3ccc(F)c(F)c3)cc2Cn2cnc3c(N)ncnc32)C1` [Example 322, (S)-3-(3-amino-1-(4-((6-amino-9H-purin-9-yl)methyl)-6-(3,4-difluorophenyl)pyridin-3-yl)piperidin-3-yl)-N,N-dimethylpropanamide] gave a pIC50 ([1]; KMS11-Par line, 72 hours) of less than 4.47 and a pIC50 [2] of 6.00 to 8.00.
